Target: T1, NcAA9C (Neurospora crassa, UniProt Q7SHI8)
T1 construct: gene gh61-3; copper-saturated
T1 sequence (Q7SHI8 17-359): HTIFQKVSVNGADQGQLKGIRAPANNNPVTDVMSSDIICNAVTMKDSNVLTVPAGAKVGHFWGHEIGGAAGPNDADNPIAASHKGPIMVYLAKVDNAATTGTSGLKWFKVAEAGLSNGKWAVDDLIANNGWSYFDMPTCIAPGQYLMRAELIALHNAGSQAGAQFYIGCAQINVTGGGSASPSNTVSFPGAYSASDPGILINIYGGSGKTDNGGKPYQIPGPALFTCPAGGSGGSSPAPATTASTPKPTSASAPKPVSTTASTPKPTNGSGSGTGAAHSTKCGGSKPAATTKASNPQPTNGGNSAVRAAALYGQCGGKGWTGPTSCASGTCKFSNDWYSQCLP
Test: HPAEC-PAD of cellotriose product
Assay type: biochemical
Conditions: 1 uM enzyme, 100 uM ascorbate, 100 uM H2O2, 50 mM MOPS pH 7.0, 30 C

## OC[C@H]1O[C@@H](O[C@H]2[C@H](O)[C@@H](O)[C@H](O[C@H]3[C@H](O)[C@@H](O)[C@H](O[C@H]4[C@H](O)[C@@H](O)[C@H](O[C@H]5[C@H](O)[C@@H](O)C(O)O[C@@H]5CO)O[C@@H]4CO)O[C@@H]3CO)O[C@@H]2CO)[C@H](O)[C@@H](O)[C@@H]1O (stereo partly shown) [cellopentaose]
  HPAEC-PAD of cellotriose product: conversion of small, soluble and easily diffusible cellopentaose by NcAA9C
